Results: patent US20220187275A1, “SYSTEMS AND METHODS FOR DIRECTED FORMATION OF SIZE-CONTROLLED MULTI-CELLULAR STRUCTURES AND MEASUREMENT OF FORCES GENERATED BY THE SAME” (Forcyte Biotechnologies, Inc., priority 2019, published 2022)

Tested on: primary human airway smooth muscle cells
Settings: 384-well plate, 24 hours serum starvation, histamine final concentration 100 micromolar, imaged at 1 minute intervals
Experimental: To achieve the result depicted in FIG. 9, approximately 2000-2500 primary human airway smooth muscle cells were seeded into each of several wells on a microplate comprising 384 wells each with at least 60 MCS-supporting micropatterns deposed on their surface, in Ham's F12 medium supplemented with 10% serum and incubated for 5 days. The MCS-supporting micropatterns comprised a fluorophore-conjugated material comprising human fibrinogen conjugated to Alexa Fluor® 546 dye.
On day 5, MCS comprising the primary airway smooth muscle cells were observed within the wells. At this point, the serum-supplemented medium was replaced with serum-free medium to induce the contractile phenotype in the MCS. […] This step was taken to maximize contractile responsiveness to agonist in the next step.
After 24 hours of serum starvation, the microplate containing the MCS was imaged using a fluorescent microscope prior to any chemical addition in the fluorescent channel that corresponds to the fluorophore used in the MCS-supporting micropattern.

NCCc1c[nH]cn1 [histamine]
contraction of the MCS (size of MCS-supporting micropatterns relative to baseline contracted state) after addition of agonist: contraction
